pIC50: −log10 of the molar value. Activity calls are given as the source filed them. No cut-off for these calls is given here.
Columns and labels:
[1] = system: HAL-01; experiment: Cytotoxicity against human HAL-01 cells measured for 72 hrs by celltiter-glo assay; conditions: HAL-01, 72 h
[2] = system: HL-60; experiment: Cytotoxicity against human HL-60 cells measured for 72 hrs by celltiter-glo assay; conditions: HL-60, 72 h
[3] = system: Jurkat; experiment: Cytotoxicity against human Jurkat cells measured for 72 hrs by celltiter-glo assay
[4] = biological target: Histone deacetylase 1 (Homo sapiens, UniProt Q13547); experiment: Inhibition of C-terminal his/FLAG-tagged full length human recombinant HDAC1 (1 to 482 residues) expressed in Sf9 insect cells using ZMAL-(Z-Lys(Ac)-AMC as substrate measured for 90 mins by microplate reader analysis
Histone deacetylase 1, sequence (Q13547 whole entry, the tested form may be a part): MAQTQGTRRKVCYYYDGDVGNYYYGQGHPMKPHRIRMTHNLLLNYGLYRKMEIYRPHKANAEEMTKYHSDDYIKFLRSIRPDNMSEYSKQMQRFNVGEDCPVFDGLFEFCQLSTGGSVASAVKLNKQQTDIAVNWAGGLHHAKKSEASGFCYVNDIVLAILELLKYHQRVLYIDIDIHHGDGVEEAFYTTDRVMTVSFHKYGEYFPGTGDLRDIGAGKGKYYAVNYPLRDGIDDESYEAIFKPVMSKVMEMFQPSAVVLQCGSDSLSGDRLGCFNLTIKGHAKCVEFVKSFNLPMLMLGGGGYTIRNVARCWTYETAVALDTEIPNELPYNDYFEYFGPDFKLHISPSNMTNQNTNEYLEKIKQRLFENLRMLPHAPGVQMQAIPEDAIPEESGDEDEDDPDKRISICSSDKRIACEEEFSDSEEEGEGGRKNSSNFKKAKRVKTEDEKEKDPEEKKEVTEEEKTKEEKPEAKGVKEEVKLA

[5] = biological target: Histone deacetylase 2 (Homo sapiens, UniProt Q92769); experiment: biochemical; format: cell-based, Sf9
Histone deacetylase 2, sequence (Q92769 whole entry, the tested form may be a part): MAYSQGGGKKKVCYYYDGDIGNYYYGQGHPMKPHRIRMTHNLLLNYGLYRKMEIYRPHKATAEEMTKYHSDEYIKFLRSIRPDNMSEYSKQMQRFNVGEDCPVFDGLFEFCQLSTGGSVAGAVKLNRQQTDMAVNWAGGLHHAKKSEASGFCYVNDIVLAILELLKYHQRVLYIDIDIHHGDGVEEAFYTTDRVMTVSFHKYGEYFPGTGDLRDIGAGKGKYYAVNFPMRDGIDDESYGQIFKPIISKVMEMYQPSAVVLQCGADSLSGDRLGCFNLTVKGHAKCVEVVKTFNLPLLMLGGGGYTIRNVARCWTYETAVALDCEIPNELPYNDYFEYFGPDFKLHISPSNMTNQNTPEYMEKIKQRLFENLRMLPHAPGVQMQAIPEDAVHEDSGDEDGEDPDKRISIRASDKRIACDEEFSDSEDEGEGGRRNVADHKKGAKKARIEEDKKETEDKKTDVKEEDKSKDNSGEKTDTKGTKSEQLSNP
Description: Inhibition of C-terminal FLAG-tagged human recombinant HDAC2 (1 to 488 residues) expressed in Sf9 insect cells using ZMAL-(Z-Lys(Ac)-AMC as substrate measured for 90 mins by microplate reader analysis

[6] = biological target: Histone deacetylase 3/Nuclear receptor corepressor 2 (HDAC3/NCoR2) (Homo sapiens, UniProt O15379); experiment: Inhibition of C-terminal his-tagged human recombinant HDAC3 (1 to 428 residues)/N-terminal GST-tagged human recombinant NCOR2 (395 to 489 residues) expressed in Sf9 insect cells using ZMAL-(Z-Lys(Ac)-AMC as substrate measured for 90 mins by microplate reader analysis
Histone deacetylase 3/Nuclear receptor corepressor 2 (HDAC3/NCoR2), sequence (O15379 whole entry, the tested form may be a part): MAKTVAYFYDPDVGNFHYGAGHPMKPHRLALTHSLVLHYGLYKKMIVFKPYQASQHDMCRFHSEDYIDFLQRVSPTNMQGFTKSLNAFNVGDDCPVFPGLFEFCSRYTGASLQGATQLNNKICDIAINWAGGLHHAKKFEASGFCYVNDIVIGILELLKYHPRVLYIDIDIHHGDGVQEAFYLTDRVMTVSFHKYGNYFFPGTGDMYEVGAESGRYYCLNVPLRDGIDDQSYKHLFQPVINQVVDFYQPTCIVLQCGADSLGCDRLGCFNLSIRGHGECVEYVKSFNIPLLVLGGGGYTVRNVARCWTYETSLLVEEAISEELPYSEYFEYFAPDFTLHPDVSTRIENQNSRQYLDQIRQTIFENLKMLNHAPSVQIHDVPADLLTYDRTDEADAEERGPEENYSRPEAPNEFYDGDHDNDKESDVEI
Histone deacetylase 3/Nuclear receptor corepressor 2 (HDAC3/NCoR2), sequence (Q9Y618 whole entry, further chain, the tested form may be a part): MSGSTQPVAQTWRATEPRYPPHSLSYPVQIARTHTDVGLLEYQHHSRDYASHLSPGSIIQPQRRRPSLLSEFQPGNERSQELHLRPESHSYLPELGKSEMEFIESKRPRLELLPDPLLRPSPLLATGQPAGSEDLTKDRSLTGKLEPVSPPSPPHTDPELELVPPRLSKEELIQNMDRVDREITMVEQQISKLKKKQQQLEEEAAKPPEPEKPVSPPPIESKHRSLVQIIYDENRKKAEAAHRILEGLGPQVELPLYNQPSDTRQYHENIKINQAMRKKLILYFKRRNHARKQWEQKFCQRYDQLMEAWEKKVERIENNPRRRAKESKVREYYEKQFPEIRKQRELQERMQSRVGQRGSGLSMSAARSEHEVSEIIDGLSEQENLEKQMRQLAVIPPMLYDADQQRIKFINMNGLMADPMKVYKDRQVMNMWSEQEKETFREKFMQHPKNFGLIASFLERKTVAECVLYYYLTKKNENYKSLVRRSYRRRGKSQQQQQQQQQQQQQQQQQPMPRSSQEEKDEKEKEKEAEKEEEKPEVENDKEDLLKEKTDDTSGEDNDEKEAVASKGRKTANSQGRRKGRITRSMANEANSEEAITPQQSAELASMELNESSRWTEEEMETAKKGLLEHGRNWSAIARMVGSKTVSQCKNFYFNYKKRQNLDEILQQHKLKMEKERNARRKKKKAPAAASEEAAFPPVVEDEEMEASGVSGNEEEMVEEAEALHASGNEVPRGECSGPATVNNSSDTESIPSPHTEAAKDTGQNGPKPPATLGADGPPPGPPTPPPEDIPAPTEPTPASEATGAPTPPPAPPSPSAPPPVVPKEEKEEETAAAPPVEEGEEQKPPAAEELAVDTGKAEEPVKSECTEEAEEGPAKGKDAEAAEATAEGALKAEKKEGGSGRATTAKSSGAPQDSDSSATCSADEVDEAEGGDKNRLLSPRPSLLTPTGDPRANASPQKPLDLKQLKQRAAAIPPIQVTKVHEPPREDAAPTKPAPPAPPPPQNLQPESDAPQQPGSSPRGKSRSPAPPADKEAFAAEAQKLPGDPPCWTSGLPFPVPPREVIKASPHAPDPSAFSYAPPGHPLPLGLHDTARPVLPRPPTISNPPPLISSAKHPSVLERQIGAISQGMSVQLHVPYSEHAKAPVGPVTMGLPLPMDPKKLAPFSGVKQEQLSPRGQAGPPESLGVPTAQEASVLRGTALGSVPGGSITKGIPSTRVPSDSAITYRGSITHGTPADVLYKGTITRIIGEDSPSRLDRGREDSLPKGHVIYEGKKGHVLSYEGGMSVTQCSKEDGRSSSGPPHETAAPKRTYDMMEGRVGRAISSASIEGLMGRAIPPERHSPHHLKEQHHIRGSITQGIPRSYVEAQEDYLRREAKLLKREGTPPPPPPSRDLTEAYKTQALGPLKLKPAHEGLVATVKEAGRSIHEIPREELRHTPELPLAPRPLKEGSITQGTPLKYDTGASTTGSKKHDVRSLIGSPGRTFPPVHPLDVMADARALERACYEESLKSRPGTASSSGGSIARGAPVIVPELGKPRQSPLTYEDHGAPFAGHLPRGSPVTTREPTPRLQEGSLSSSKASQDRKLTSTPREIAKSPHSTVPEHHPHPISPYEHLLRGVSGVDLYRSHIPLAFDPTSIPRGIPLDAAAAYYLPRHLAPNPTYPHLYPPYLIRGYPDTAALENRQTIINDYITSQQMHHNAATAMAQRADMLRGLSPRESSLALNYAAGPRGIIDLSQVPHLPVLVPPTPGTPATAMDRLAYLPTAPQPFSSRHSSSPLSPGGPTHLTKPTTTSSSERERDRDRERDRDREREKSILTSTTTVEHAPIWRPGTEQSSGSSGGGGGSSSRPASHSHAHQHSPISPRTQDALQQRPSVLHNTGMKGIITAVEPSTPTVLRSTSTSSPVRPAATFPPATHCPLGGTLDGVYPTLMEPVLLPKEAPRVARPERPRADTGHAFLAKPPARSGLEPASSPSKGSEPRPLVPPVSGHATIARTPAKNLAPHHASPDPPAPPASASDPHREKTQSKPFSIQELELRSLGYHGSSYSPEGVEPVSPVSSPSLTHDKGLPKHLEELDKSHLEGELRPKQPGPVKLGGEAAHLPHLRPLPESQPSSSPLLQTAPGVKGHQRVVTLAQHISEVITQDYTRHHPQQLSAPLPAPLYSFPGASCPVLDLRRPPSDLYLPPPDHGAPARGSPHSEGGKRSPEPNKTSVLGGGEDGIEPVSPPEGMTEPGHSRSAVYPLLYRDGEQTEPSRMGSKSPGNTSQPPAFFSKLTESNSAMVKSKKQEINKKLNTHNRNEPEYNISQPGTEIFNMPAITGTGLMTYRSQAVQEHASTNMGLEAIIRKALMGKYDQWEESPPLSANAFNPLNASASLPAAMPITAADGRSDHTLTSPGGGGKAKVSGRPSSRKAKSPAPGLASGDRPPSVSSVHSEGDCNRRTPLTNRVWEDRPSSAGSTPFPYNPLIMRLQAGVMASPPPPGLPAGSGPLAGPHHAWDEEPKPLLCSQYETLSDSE

[7] = system: HAL-01; experiment: Synergistic cytotoxicity against human HAL-01 cells measured after 72 hrs in presence of decitabine by celltiter-glo assay; format: functional, cell-based
[8] = system: Jurkat; experiment: Synergistic cytotoxicity against human Jurkat cells measured after 72 hrs in presence of decitabine by celltiter-glo assay; format: functional, cell-based
[9] = system: HL-60; experiment: Induction of apoptosis in human HL-60 cells assessed as viable cells at 1 to 5 uM measured for 48 hrs by Annexin/PI staining based analysis; format: functional; conditions: dose 1-5 µM
[10] = system: HL-60; experiment: Induction of apoptosis in human HL-60 cells assessed as increase in early apoptotic cells at 1 to 5 uM measured for 48 hrs by Annexin/PI staining based analysis; format: functional, cell-based; conditions: dose 1-5 µM
[11] = system: HL-60; experiment: Induction of apoptosis in human HL-60 cells assessed as increase in late apoptotic cells at 1 to 5 uM measured for 48 hrs by Annexin/PI staining based analysis; format: functional, cell-based; conditions: dose 1-5 µM
[12] = system: HL-60; experiment: Induction of apoptosis in human HL-60 cells assessed as increase in dead cells at 1 to 5 uM measured for 48 hrs by Annexin/PI staining based analysis; format: functional, cell-based; conditions: dose 1-5 µM
[13] = system: MOLM-13; experiment: Synergistic cytotoxicity against human MOLM-13 cells measured after 72 hrs in presence of decitabine by celltiter-glo assay; format: functional, cell-based
[14] = system: HL-60; conditions: Homo sapiens, dose 24.0 nM, time 24.0 hrs
[15] = system: HL-60; conditions: Homo sapiens, dose 24.0 nM, time 24.0 hrs; remark: listed apart in the source

Compound	pIC50 [1]	pIC50 [2]	pIC50 [3]	also measured
O=C(CN(C(=O)Cc1ccc(C(=O)NO)cc1)c1ccccc1)NC1CCCCC1	5.69	5.74	5.60	–
O=C(CN(C(=O)Cc1ccc(C(=O)NO)cc1)c1ccccc1)NCc1ccccc1	5.67	5.64	5.64	pIC50 [4]: 6.55
Cc1ccccc1N(CC(=O)NC1CCCCC1)C(=O)Cc1ccc(C(=O)NO)cc1F	5.63	5.69	5.51	pIC50 [5]: 6.10; pIC50 [6]: 6.28; Activity [7]: inactive; Activity [8]: inactive
CC(C)(C)NC(=O)CN(C(=O)Cc1ccc(C(=O)NO)cc1)c1ccccc1	5.31	5.22	5.08	–
CCCCNC(=O)CN(C(=O)Cc1ccc(C(=O)NO)cc1)c1ccccc1	5.51	5.57	5.39	–
O=C(CN(C(=O)Cc1ccc(C(=O)NO)cc1)c1ccccc1C(F)(F)F)NC1CCCCC1	5.52	5.68	5.34	–
O=C(CN(C(=O)Cc1ccc(C(=O)NO)cc1F)c1ccccc1C(F)(F)F)NC1CCCCC1	5.75	5.79	5.64	–
Cc1cccc(N(CC(=O)NC2CCCCC2)C(=O)Cc2ccc(C(=O)NO)cc2)c1	5.72	5.76	5.59	–
Cc1ccccc1N(CC(=O)NC1CCCCC1)C(=O)Cc1ccc(C(=O)NO)cc1	5.82	5.64	5.60	–
CCc1ccccc1N(CC(=O)NC1CCCCC1)C(=O)Cc1ccc(C(=O)NO)cc1F	5.84	5.82	5.49	–
Cc1ccc(N(CC(=O)NC2CCCCC2)C(=O)Cc2ccc(C(=O)NO)cc2)cc1	6.64	6.44	6.39	pIC50 [5]: 6.95; pIC50 [6]: 7.38; Activity [9]: 50%; Activity [10]: Active; Activity [11]: Active; Activity [12]: Active; Activity [7]: Active; Activity [13]: Active; inhibition [14]: Active; inhibition [15]: 2.67%
CCc1ccccc1N(CC(=O)NC1CCCCC1)C(=O)Cc1ccc(C(=O)NO)cc1	5.84	5.87	5.64	–
O=C(CN(C(=O)Cc1ccc(C(=O)NO)cc1F)c1ccccc1)NC1CCCCC1	5.68	5.87	5.62	–
